Among the data in PubChem BioAssay (NCI) are GI50 and TGI values, retold here.

Molecules are shown by their SMILES.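 Interpolation was linear, between the two tested concentrations surrounding the appropriate level; five concentrations were tested over 48 hours in 96-well plates. Here, GI50 denotes the concentration required for 50% inhibition of growth. TGI is the concentration that stops growth completely.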

Experiment in all cases: inhibition of tumour cell growth, NCI panel, 48 h
For test [1], the system named is UACC-257 melanoma.
Test [2] has as its system HCT-15 colon.
The test system of test [3] is NCI-H522 lung.
For test [4], the system named is HT29 colon.
The test system of test [5] is NCI-H460 lung.
Test [6] has as its system NCI/ADR-RES ovarian.
Test [7] has as its system U251 CNS.
The subject of test [8] is IGROV1 ovarian.
Test [9] has as its system MOLT-4 leukemia.
The test system of test [10] is RPMI-8226 leukemia.

As to `CCCCCCCCCCCCCCCCCCOc1ccccc1CC(=O)NCC[N+](C)(C)C`, the GI50 in test [1] is 23.6 µM; in test [2] it was 17 µM; in test [3], 2.67 µM; in [4] it was 3.09 µM; in test [5] it was 3.47 µM; in test [6] it was 22.6 µM. In addition, the TGI in test [1] is 51.6 µM; in [2] it was 57.4 µM; in test [3] it was 8.24 µM; in test [4], 26.7 µM; in test [5] it was 52.4 µM; in test [6], 62.6 µM.
On to `C=C(CNC(=O)c1ccccc1)c1ccc(C(=O)Nc2ccccc2N)cc1`, for which the GI50 in test [1] was 3.62 µM; in test [2], 8.14 µM; in test [3], 2.6 µM; in test [4], 3.86 µM; in test [5] it was 8.02 µM; in [7], 5.43 µM. Besides, the GI50 in test [8] is 19.5 µM; in [9], 1.49 µM; in test [6], 2.35 µM. Besides, the TGI is 23.6 µM in [1]; over 100 µM in [2]; 10.1 µM in [3]; over 100 µM in [4]; over 100 µM in [5]; 74.5 µM in [7]. Moreover, the TGI in test [8], in [9] and in test [6] was over 100 µM each time.
As for `COc1cc2c3c(n(CCCBr)c(=O)c2cc1OC)-c1ccc(F)cc1C3=O`, the GI50 in test [1] is 76.4 µM; in test [2], 48.7 µM; in [3], 4.9 µM; in test [4], 16.9 µM; in test [5] it was 2.38 µM; in test [7] it was 3.74 µM. Further, the GI50 in [10] was 12.6 µM; in test [9] it was 2.89 µM; in test [6] it was 13.3 µM. The TGI in test [1] was over 100 µM; in test [2] it was over 100 µM; in [3] it was 36.3 µM; in test [4], over 100 µM; in test [5], 47.2 µM; in test [7], 24.3 µM. For the same molecule, the TGI in [10] is 38.1 µM; in test [9], 10.6 µM; in [6], over 100 µM.
For `CNC1=C(C(=O)OC)SC(c2ccccc2)(c2ccccc2)SC1`, the GI50 in test [1] is 9.2 µM; in test [2] it was 9.36 µM; in test [3] it was 4.01 µM; in [4], 20.9 µM; in test [5], 16.9 µM; in test [7] it was 34.8 µM. The values for the GI50 in test [10], in [9] and in [6] were 8.83 µM, 7.56 µM and 12 µM, respectively. Further, the TGI in test [1], in test [2], in test [3], in [4], in test [5] and in test [7] was over 100 µM in each case. Further, the TGI in [10] is 39.7 µM; in test [9], over 100 µM; in [6], 70.2 µM.
For `COc1ccc2c(c1)c(-c1ccc(-c3cn(C)c4ccc(OC)cc34)[nH]1)cn2C`, the GI50 is 13.7 µM in [1]; 1.84 µM in test [2]; 9.38 µM in [4]; 4.09 µM in [5]; 1.4 µM in test [7]; 1.28 µM in test [10]. The values for the GI50 in test [8], in [9] and in test [6] were 1.89 µM, 4.13 µM and 3.39 µM, respectively. The TGI came to 38.7 µM in test [1]; 3.91 µM in test [2]; 42 µM in test [4]; 19.5 µM in test [5]; 3.52 µM in test [7]; 3.38 µM in test [10]. For the same molecule, the TGI in test [8] is 4.35 µM; in test [9], 29.7 µM; in [6], 20 µM.
For `Nc1c(C(=O)N/N=C/c2ccc(-c3cc(Cl)c(Cl)cc3Cl)o2)cnn1-c1ccnc2c(C(F)(F)F)cccc12`, the GI50 in test [2] is 3.43 µM; in test [3], 3.37 µM; in test [4] it was 2.73 µM; in test [5], 3.73 µM; in test [7], 4.18 µM; in [10], 3.25 µM. For the same molecule, the GI50 in test [8] is 4.53 µM; in test [9], 2.91 µM; in test [6] it was 3.58 µM. The TGI in [2] was over 100 µM; in [3], 31.1 µM; in [4], 28 µM; in test [5], 16.9 µM; in [7] it was over 100 µM; in test [10], over 100 µM. Moreover, the TGI was over 100 µM in test [8], over 100 µM in test [9] and 87.9 µM in [6].
For the molecule `CCC1(NC(=O)c2cc(F)c(F)c(F)c2F)C(=O)NC(=O)N(C(C)C)C1=O` (stereo not drawn), the GI50 in [1] is 32.1 µM; in [2], 8.05 µM; in test [4] it was 22.6 µM; in test [5], 49.7 µM; in [7], 25.6 µM; in test [10] it was over 100 µM. Moreover, the GI50 was 10.4 µM in test [8], 22.6 µM in [9] and 31.8 µM in [6]. The TGI in [1] is over 100 µM; in test [2] it was over 100 µM; in test [4], over 100 µM; in test [5] it was over 100 µM; in [7], 91.3 µM; in test [10], over 100 µM. Moreover, the TGI came out at 28.7 µM in [8], 78.8 µM in test [9] and 88.3 µM in [6].
For the molecule `COC(=O)[C@H](C)NC(=O)[C@@H](OC)[C@@H]1Cc2cc3cc(OC4CC(OC5CC(O)C(O)C(C)O5)C(O)C(C)O4)c(C)c(O)c3c(O)c2C(=O)[C@H]1OC1CC(OC2CC(OC3CC(C)(O)C(O)C(C)O3)C(O)C(C)O2)C(O)C(C)O1` (stereo partly drawn), the GI50 was 0.052 µM in test [1]; 0.41 µM in test [2]; 0.117 µM in test [4]; 0.0344 µM in [5]; 0.073 µM in [7]; 0.1 µM in test [10]. The GI50 in test [8] was 0.05 µM; in test [9] it was 0.232 µM; in test [6], 12.3 µM. In addition, the TGI was 0.846 µM in test [1]; over 50 µM in test [2]; over 50 µM in test [4]; over 50 µM in test [5]; over 50 µM in test [7]; 1.89 µM in test [10]. In addition, the TGI was over 50 µM in test [8], 4.13 µM in test [9] and over 50 µM in test [6].
